Results on one compound are retold here after patent publication US11981626B1, “Compound embodiments for hydrogen sulfide production and methods of making and using the same” (University of Oregon, priority 2018, dated 2024).

Structures are written as SMILES.

Data set [1] in a line: H2S production measured by methylene blue (MB) assay in PBS containing BSA and CA. It counts as physicochemical. Particulars: 37° C. As for the experimental part:
Using the same conditions, H2S production was measured at different time points using the MB assay (FIG. 5A, curve labeled with the “▾” symbol). The MB assay allows for H2S quantification from the reaction of H2S with N,N-dimethyl-p-phenylenediamine in the presence of FeCl3 and acid to produce methylene blue (MB, λmax=670). In the MB assay, a γ-KetoTCM-1 stock solution (100 μL, 10.0 mM in DMSO) was added to 20.0 mL of PBS (pH 7.40, 10.0 mM) containing BSA (5.00 mg/mL) and CA (25.0 μg/mL) in a 25-mL scintillation vial at 37° C. Next, 0.300 mL aliquots of the reaction mixture were transferred to UV cuvettes containing 0.300 mL of MB cocktail at different time points. The MB reaction mixture was incubated at room temperature for 1 hour and the precipitate was removed using syringe filters. The absorbance at 670 nm was then measured and was converted to H2S concentration by using the H2S calibration curve in FIG. 6. […] The MB solution was allowed to react with H2S for 1 hour before measuring the absorbance at 670 nm.
The linearity between these two methods was lost after 60 minutes due to the oxidation of H2S in the MB assay at extended incubation times (FIG. 5A). […] The absorbance at 670 nm was then measured and converted to H2S concentration by using the H2S calibration curve in FIG. 6. […]

Data set [2] can be described thus: H2S release observed with an H2S electrode at different pH. It counts as physicochemical. Particulars: PBS pH 6.0-8.0. From the text: H2S release was also observed by using an H2S electrode, confirming that H2S was released in this system and such H2S release was pH-dependent (FIGS. 3A and 3B). This example therefore establishes that COS/H2S release from compound embodiments of the present disclosure can be pH dependent.

As for `CC(=O)CCOC(=S)Nc1ccc([N+](=O)[O-])cc1` [γ-KetoTCM-1], in data set [1] (MB assay, 50 μM, PBS pH 7.4, BSA), the H2S release efficiency was found to be 70%. Moreover, in data set [1] (PBS pH 7.4, BSA 5 mg/mL, up to plateau (~60 minutes)), the “pseudo first-order rate constant kobs from fitting the MB data” value is 8.6±0.9 ×10^−4 s^−1. Also, the “H2S release by H2S electrode” value in data set [2] is “pH-dependent”.
